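Growth conditions: 96-well plates. Treatment: test compound, 48 hours, 5 concentrations. Analysis: linear interpolation between bracketing concentrations; unreached endpoints set to highest concentration. Here, GI50 denotes the concentration required for 50% inhibition of growth.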 Activity calls are given as the source filed them. No stated cut-off is given here; in the data, active = GI50 up to about 1.1 µM and inactive = higher.
Experiments:
Test in all cases: NCI tumour cell line growth inhibition, 48 h
[1] = tested on: SNB-75
[2] = tested on: NCI-H226
[3] = tested on: SR
[4] = tested on: M14
[5] = tested on: OVCAR-3
[6] = tested on: Hs-578T
[7] = tested on: UO-31
[8] = tested on: A498
[9] = tested on: UACC-62
[10] = tested on: SK-MEL-2
[11] = tested on: OVCAR-4
[12] = tested on: HCT-116
[13] = tested on: NCI-H522
[14] = tested on: HT-29
[15] = tested on: LOX IMVI
[16] = tested on: SF-268
[17] = tested on: NCI-H23
[18] = tested on: UACC-257
[19] = tested on: RXF 393
[20] = tested on: SN12C

Structure (SMILES)	GI50 [1]	GI50 [2]	GI50 [3]	GI50 [4]	GI50 [5]	GI50 [6]	GI50 [7]	GI50 [8]	GI50 [9]	GI50 [10]	GI50 [11]	GI50 [12]	GI50 [13]	GI50 [14]	GI50 [15]	GI50 [16]	GI50 [17]	GI50 [18]	GI50 [19]	GI50 [20]
O=C1Nc2ccccc2C1Cc1ccccc1 (centres undefined)	0.296 µM (active)	> 100 µM (inactive)	> 100 µM (inactive)	> 100 µM (inactive)	> 100 µM (inactive)	> 100 µM (inactive)	78.5 µM (inactive)	> 100 µM (inactive)	> 100 µM (inactive)	> 100 µM (inactive)	> 100 µM (inactive)	> 100 µM (inactive)	> 100 µM (inactive)	> 100 µM (inactive)	> 100 µM (inactive)	> 100 µM (inactive)	> 100 µM (inactive)	> 100 µM (inactive)		
O=C(c1ccccc1)N1CCC(Nc2cccnc2)O1 (centres undefined)		> 100 µM (inactive)	> 100 µM (inactive)	> 100 µM (inactive)	> 100 µM (inactive)	7.64 µM (inactive)	> 100 µM (inactive)	> 100 µM (inactive)	> 100 µM (inactive)	> 100 µM (inactive)		> 100 µM (inactive)		> 100 µM (inactive)		> 100 µM (inactive)	> 100 µM (inactive)		> 100 µM (inactive)	> 100 µM (inactive)
Cn1c(=O)[nH]c2[nH]c3ccccc3c2c1=O	32.1 µM (inactive)	> 100 µM (inactive)	> 100 µM (inactive)	> 100 µM (inactive)	> 100 µM (inactive)	65.5 µM (inactive)	> 100 µM (inactive)	> 100 µM (inactive)	> 100 µM (inactive)	> 100 µM (inactive)		> 100 µM (inactive)	> 100 µM (inactive)	> 100 µM (inactive)	> 100 µM (inactive)	> 100 µM (inactive)	> 100 µM (inactive)	> 100 µM (inactive)	> 100 µM (inactive)	> 100 µM (inactive)
C1OCN2c3nonc3N3COCN4c5nonc5N1C2C43 (centres undefined)	> 100 µM (inactive)	> 100 µM (inactive)	> 100 µM (inactive)	> 100 µM (inactive)	> 100 µM (inactive)	> 100 µM (inactive)	> 100 µM (inactive)	> 100 µM (inactive)	> 100 µM (inactive)	> 100 µM (inactive)	> 100 µM (inactive)	57.4 µM (inactive)	> 100 µM (inactive)	31.1 µM (inactive)		> 100 µM (inactive)	> 100 µM (inactive)	> 100 µM (inactive)	> 100 µM (inactive)	> 100 µM (inactive)
CCOC(=O)/C=C/C1=C(Br)[C@@]2(C)CC[C@@H]3c4ccc(O)cc4CC[C@H]3[C@@H]2C1		15.2 µM (inactive)	7.03 µM (inactive)	11.7 µM (inactive)	7.94 µM (inactive)	15.6 µM (inactive)	16.8 µM (inactive)	18.1 µM (inactive)	6.85 µM (inactive)	14.9 µM (inactive)	14.5 µM (inactive)	13.7 µM (inactive)	4.02 µM (inactive)	14.6 µM (inactive)	7.08 µM (inactive)	19 µM (inactive)	13.7 µM (inactive)	13.9 µM (inactive)	15.7 µM (inactive)	13.6 µM (inactive)
O=[N+]([O-])c1ccc(N/N=C(\c2ccccc2)c2ccccn2)nc1	7.06 µM (inactive)		1.48 µM (inactive)	0.182 µM (active)	0.409 µM (active)	4.29 µM (inactive)	0.817 µM (active)	> 100 µM (inactive)	2.5 µM (inactive)	14.8 µM (inactive)	18.7 µM (inactive)	0.21 µM (active)	0.0794 µM (active)	0.0253 µM (active)		2.51 µM (inactive)	0.845 µM (active)	0.262 µM (active)	5.56 µM (inactive)	0.429 µM (active)
Cc1cn(C2CC(N)C(C(=O)O)O2)c(=O)[nH]c1=O (centres undefined)	> 100 µM (inactive)	> 100 µM (inactive)	> 100 µM (inactive)	> 100 µM (inactive)	> 100 µM (inactive)	> 100 µM (inactive)	> 100 µM (inactive)	> 100 µM (inactive)	> 100 µM (inactive)	> 100 µM (inactive)	> 100 µM (inactive)	> 100 µM (inactive)	> 100 µM (inactive)	> 100 µM (inactive)		> 100 µM (inactive)	> 100 µM (inactive)	> 100 µM (inactive)		> 100 µM (inactive)
COc1ccc(OC)c2c1C=CC(Br)=CC2		0.372 µM (active)	0.191 µM (active)	0.237 µM (active)	0.276 µM (active)	0.224 µM (active)	0.332 µM (active)	0.324 µM (active)	0.137 µM (active)	0.106 µM (active)	0.4 µM (active)	0.232 µM (active)	0.223 µM (active)	0.136 µM (active)	0.158 µM (active)	0.313 µM (active)	0.259 µM (active)	0.255 µM (active)		0.372 µM (active)
CCN(CC)CCNc1c(OC)cc(C)c2sc3ccccc3c(=O)c12	12.9 µM (inactive)	3.4 µM (inactive)	3.15 µM (inactive)	3.71 µM (inactive)	11.8 µM (inactive)	7.5 µM (inactive)	6.32 µM (inactive)		1.79 µM (inactive)	12.6 µM (inactive)	5.3 µM (inactive)	4.66 µM (inactive)	5.33 µM (inactive)	2.61 µM (inactive)		11 µM (inactive)	14.5 µM (inactive)	1.82 µM (inactive)	10.1 µM (inactive)	2.79 µM (inactive)
CC(C)CC(C#CCCOC(=O)c1ccccc1)OC(=O)c1ccccc1 (centres undefined)	0.445 µM (active)	> 10 µM (inactive)	> 10 µM (inactive)	> 10 µM (inactive)	> 10 µM (inactive)	> 10 µM (inactive)	> 10 µM (inactive)	> 10 µM (inactive)	> 10 µM (inactive)	> 10 µM (inactive)		> 10 µM (inactive)		> 10 µM (inactive)	> 10 µM (inactive)	> 10 µM (inactive)	> 10 µM (inactive)	> 10 µM (inactive)	> 10 µM (inactive)	> 10 µM (inactive)
Cc1ccc(S(=O)(=O)N(CC(O)COc2ccccc2)c2c(F)c(F)c(F)c(F)c2F)cc1 (centres undefined)	16.3 µM (inactive)	17.9 µM (inactive)	20.7 µM (inactive)	20 µM (inactive)	17.3 µM (inactive)	18.5 µM (inactive)	12.6 µM (inactive)	17.1 µM (inactive)	13.7 µM (inactive)	16.4 µM (inactive)	13.3 µM (inactive)	17 µM (inactive)		16.2 µM (inactive)	13.9 µM (inactive)	14.5 µM (inactive)	14.4 µM (inactive)			16.6 µM (inactive)
CN1CCCN2CCN(C)CCN(CC1)CC2	> 100 µM (inactive)		> 100 µM (inactive)	> 100 µM (inactive)	> 100 µM (inactive)	> 100 µM (inactive)	> 100 µM (inactive)	> 100 µM (inactive)	> 100 µM (inactive)	> 100 µM (inactive)	> 100 µM (inactive)	> 100 µM (inactive)	> 100 µM (inactive)	> 100 µM (inactive)	> 100 µM (inactive)	> 100 µM (inactive)	> 100 µM (inactive)	> 100 µM (inactive)	> 100 µM (inactive)	> 100 µM (inactive)
CCOc1ccc2ccccc2c1NC1=NCCO1	34.6 µM (inactive)	25.7 µM (inactive)	31.5 µM (inactive)	37.2 µM (inactive)		23.1 µM (inactive)	21 µM (inactive)	35.1 µM (inactive)	39.4 µM (inactive)		26.8 µM (inactive)	36.9 µM (inactive)		30.3 µM (inactive)		> 100 µM (inactive)	28.8 µM (inactive)	34.6 µM (inactive)	98.6 µM (inactive)	> 100 µM (inactive)
Cc1nn(C(=O)c2ccc(Cl)cc2)c2c1C(c1cccc([N+](=O)[O-])c1)SC(=N)N2 (centres undefined)	> 10 µM (inactive)	> 10 µM (inactive)	> 10 µM (inactive)	> 10 µM (inactive)	> 10 µM (inactive)	> 10 µM (inactive)			> 10 µM (inactive)	> 10 µM (inactive)	> 10 µM (inactive)	> 10 µM (inactive)	> 10 µM (inactive)	> 10 µM (inactive)	> 10 µM (inactive)	> 10 µM (inactive)	> 10 µM (inactive)	> 10 µM (inactive)	> 10 µM (inactive)	> 10 µM (inactive)
C[C@H](CCC(=O)NCCS(=O)(=O)O)[C@H]1CC[C@H]2[C@@H]3[C@H](O)C[C@@H]4C[C@H](O)CC[C@]4(C)[C@H]3CC[C@]12C		> 100 µM (inactive)	> 100 µM (inactive)	> 100 µM (inactive)	> 100 µM (inactive)	> 100 µM (inactive)	> 100 µM (inactive)	> 100 µM (inactive)	> 100 µM (inactive)	> 100 µM (inactive)	> 100 µM (inactive)	> 100 µM (inactive)	> 100 µM (inactive)	> 100 µM (inactive)	> 100 µM (inactive)	> 100 µM (inactive)	> 100 µM (inactive)	> 100 µM (inactive)	> 100 µM (inactive)	> 100 µM (inactive)

— ChEMBL document CHEMBL1201862, “PubChem BioAssay data set” (2004)
